Laboratory results taken from patent US9611275B2 (priority 2012, dated 2017).

Assay: Assay for determination of apparent permeability (Papp), bi-directional transport
Conditions: pig, LLC-PK1

Q: Which Papp at 3 h, 1 μM does the source give for `CO[C@@](C)([C@H]1O[C@@H]2SC(N(C)C)=N[C@@H]2[C@@H](O)[C@@H]1O)C(F)(F)F` (single isomer, unassigned) [Example 74] here?
A: 24.5 ×10⁻⁶ cm/s

Q: With `CO[C@H]([C@H]1O[C@@H]2SC(N(C)C)=N[C@@H]2[C@@H](O)[C@@H]1O)C(F)(F)F` [Example 2, (3aR,5S,6S,7R,7aR)-2-(dimethylamino)-5-((R)-2,2,2-trifluoro-1-methoxyethyl)-5,6,7,7a-tetrahydro-3aH-pyrano[3,2-d]thiazole-6,7-diol] as the molecule, how does the Papp at 3 h, 1 μM read?
A: 20.8 ×10⁻⁶ cm/s

Q: With `CNC1=N[C@@H]2[C@@H](O)[C@H](O)[C@@H]([C@H](Oc3ccccc3)C(F)(F)F)O[C@@H]2S1` [Example 3, (3aR,5S,6S,7R,7aR)-2-(methylamino)-5-((S)-2,2,2-trifluoro-1-phenoxyethyl)-5,6,7,7a-tetrahydro-3aH-pyrano[3,2-d]thiazole-6,7-diol] as the molecule, how does the Papp at 3 h, 1 μM read?
A: 28.3 ×10⁻⁶ cm/s

Q: With `CNC1=N[C@@H]2[C@@H](O)[C@H](O)[C@@H]([C@@H](Oc3ccccc3)C(F)(F)F)O[C@@H]2S1` [Example 4, (3aR,5S,6S,7R,7aR)-2-(methylamino)-5-((R)-2,2,2-trifluoro-1-phenoxyethyl)-5,6,7,7a-tetrahydro-3aH-pyrano[3,2-d]thiazole-6,7-diol] as the molecule, how does the Papp at 3 h, 1 μM read?
A: 27.3 ×10⁻⁶ cm/s

Q: Which Papp at 3 h, 1 μM does the source give for `CN(C)C1=N[C@@H]2[C@@H](O)[C@H](O)[C@@H]([C@@H](Oc3ccc([N+](=O)[O-])cc3)C(F)(F)F)O[C@@H]2S1` [Example 9, (3aR,5S,6S,7R,7aR)-2-(dimethylamino)-5-((R)-2,2,2-trifluoro-1-(4-nitrophenoxy)ethyl)-5,6,7,7a-tetrahydro-3aH-pyrano[3,2-d]thiazole-6,7-diol] here?
A: 31.5 ×10⁻⁶ cm/s

Q: Which Papp at 3 h, 1 μM does the source give for `CN[C@H]([C@H]1O[C@@H]2SC(N(C)C)=N[C@@H]2[C@@H](O)[C@@H]1O)C(F)(F)F` [Example 16, (3aR,5R,6S,7R,7aR)-2-(dimethylamino)-5-((R)-2,2,2-trifluoro-1-(methylamino)ethyl)-5,6,7,7a-tetrahydro-3aH-pyrano[3,2-d]thiazole-6,7-diol] here?
A: 15.5 ×10⁻⁶ cm/s

Q: For `C=CCOc1ccc(CO[C@H]([C@H]2O[C@@H]3SC(N(C)C)=N[C@@H]3[C@@H](O)[C@@H]2O)C(F)(F)F)cc1` [Example 20, (3aR,5S,6S,7R,7aR)-5-((R)-1-(4-(allyloxy)benzyloxy)-2,2,2-trifluoroethyl)-2-(dimethylamino)-5,6,7,7a-tetrahydro-3aH-pyrano[3,2-d]thiazole-6,7-diol], which Papp at 3 h, 1 μM is on record?
A: 29.8 ×10⁻⁶ cm/s

Q: Which Papp at 3 h, 1 μM does the source give for `CCO[C@@H]([C@H]1O[C@@H]2SC(N(C)C)=N[C@@H]2[C@@H](O)[C@@H]1O)C(F)(F)F` [Example 22, (3aR,5S,6S,7R,7aR)-2-(dimethylamino)-5-((S)-1-ethoxy-2,2,2-trifluoroethyl)-5,6,7,7a-tetrahydro-3aH-pyrano[3,2-d]thiazole-6,7-diol] here?
A: 27.2 ×10⁻⁶ cm/s

Q: Which Papp at 3 h, 1 μM does the source give for `CCO[C@H]([C@H]1O[C@@H]2SC(N(C)C)=N[C@@H]2[C@@H](O)[C@@H]1O)C(F)(F)F` [Example 23, (3aR,5S,6S,7R,7aR)-2-(dimethylamino)-5-((R)-1-ethoxy-2,2,2-trifluoroethyl)-5,6,7,7a-tetrahydro-3aH-pyrano[3,2-d]thiazole-6,7-diol] here?
A: 23.6 ×10⁻⁶ cm/s

Q: With `CCCO[C@H]([C@H]1O[C@@H]2SC(N(C)C)=N[C@@H]2[C@@H](O)[C@@H]1O)C(F)(F)F` [Example 25, (3aR,5S,6S,7R,7aR)-2-(dimethylamino)-5-((R)-2,2,2-trifluoro-1-propoxyethyl)-5,6,7,7a-tetrahydro-3aH-pyrano[3,2-d]thiazole-6,7-diol] as the molecule, how does the Papp at 3 h, 1 μM read?
A: 29.5 ×10⁻⁶ cm/s

Q: Which Papp at 3 h, 1 μM does the source give for `CCCCO[C@H]([C@H]1O[C@@H]2SC(N(C)C)=N[C@@H]2[C@@H](O)[C@@H]1O)C(F)(F)F` [Example 26, (3aR,5S,6S,7R,7aR)-5-((R)-1-butoxy-2,2,2-trifluoroethyl)-2-(dimethylamino)-5,6,7,7a-tetrahydro-3aH-pyrano[3,2-d]thiazole-6,7-diol] here?
A: 30.8 ×10⁻⁶ cm/s

Q: With `CCCCCO[C@H]([C@H]1O[C@@H]2SC(N(C)C)=N[C@@H]2[C@@H](O)[C@@H]1O)C(F)(F)F` [Example 27, (3aR,5S,6S,7R,7aR)-2-(dimethylamino)-5-((R)-2,2,2-trifluoro-1-(pentyloxy)ethyl)-5,6,7,7a-tetrahydro-3aH-pyrano[3,2-d]thiazole-6,7-diol] as the molecule, how does the Papp at 3 h, 1 μM read?
A: 32 ×10⁻⁶ cm/s

Q: Which Papp at 3 h, 1 μM does the source give for `CN(C)C1=N[C@@H]2[C@@H](O)[C@H](O)[C@@H]([C@@H](OCCCF)C(F)(F)F)O[C@@H]2S1` [Example 29, (3aR,5S,6S,7R,7aR)-2-(dimethylamino)-5-((R)-2,2,2-trifluoro-1-(3-fluoropropoxy)ethyl)-5,6,7,7a-tetrahydro-3aH-pyrano[3,2-d]thiazole-6,7-diol] here?
A: 20.9 ×10⁻⁶ cm/s

Q: Which Papp at 3 h, 1 μM does the source give for `CN(C)C1=N[C@@H]2[C@@H](O)[C@H](O)[C@@H]([C@@H](OCCCCF)C(F)(F)F)O[C@@H]2S1` [Example 30, (3aR,5S,6S,7R,7aR)-2-(dimethylamino)-5-((R)-2,2,2-trifluoro-1-(4-fluorobutoxy)ethyl)-5,6,7,7a-tetrahydro-3aH-pyrano[3,2-d]thiazole-6,7-diol] here?
A: 30.8 ×10⁻⁶ cm/s

Q: For `CN(C)C1=N[C@@H]2[C@@H](O)[C@H](O)[C@@H]([C@@H](OCC3CCCCC3)C(F)(F)F)O[C@@H]2S1` [Example 35, (3aR,5S,6S,7R,7aR)-5-((R)-1-(cyclohexylmethoxy)-2,2,2-trifluoroethyl)-2-(dimethylamino)-5,6,7,7a-tetrahydro-3aH-pyrano[3,2-d]thiazole-6,7-diol], which Papp at 3 h, 1 μM is on record?
A: 33.6 ×10⁻⁶ cm/s

Q: Which Papp at 3 h, 1 μM does the source give for `CN(C)C1=N[C@@H]2[C@@H](O)[C@H](O)[C@@H]([C@@H](OCCCc3ccc(F)cc3)C(F)(F)F)O[C@@H]2S1` [Example 36, (3aR,5S,6S,7R,7aR)-2-(dimethylamino)-5-((R)-2,2,2-trifluoro-1-(3-(4-fluorophenyl)propoxy)ethyl)-5,6,7,7a-tetrahydro-3aH-pyrano[3,2-d]thiazole-6,7-diol] here?
A: 28.1 ×10⁻⁶ cm/s

Q: For `Cc1ccc(CO[C@H]([C@H]2O[C@@H]3SC(N(C)C)=N[C@@H]3[C@@H](O)[C@@H]2O)C(F)(F)F)cc1` [Example 40, (3aR,5S,6S,7R,7aR)-2-(dimethylamino)-5-((R)-2,2,2-trifluoro-1-(4-methylbenzyloxy)ethy1)-5,6,7,7a-tetrahydro-3aH-pyrano[3,2-d]thiazole-6,7-diol], which Papp at 3 h, 1 μM is on record?
A: 31.2 ×10⁻⁶ cm/s

Q: With `CCc1ccc(CO[C@H]([C@H]2O[C@@H]3SC(N(C)C)=N[C@@H]3[C@@H](O)[C@@H]2O)C(F)(F)F)cc1` [Example 41, (3aR,5S,6S,7R,7aR)-2-(dimethylamino)-5-((R)-1-(4-ethylbenzyloxy)-2,2,2-trifluoroethyl)-5,6,7,7a-tetrahydro-3aH-pyrano[3,2-d]thiazole-6,7-diol] as the molecule, how does the Papp at 3 h, 1 μM read?
A: 30.7 ×10⁻⁶ cm/s

Q: Which Papp at 3 h, 1 μM does the source give for `CN(C)C1=N[C@@H]2[C@@H](O)[C@H](O)[C@@H]([C@@H](OCc3cccc(F)c3F)C(F)(F)F)O[C@@H]2S1` [Example 46, (3aR,5S,6S,7R,7aR)-5-((R)-1-(2,3-difluorobenzyloxy)-2,2,2-trifluoroethyl)-2-(dimethylamino)-5,6,7,7a-tetrahydro-3aH-pyrano[3,2-d]thiazole-6,7-diol] here?
A: 34.5 ×10⁻⁶ cm/s

Q: For `C[C@H](O[C@H]([C@H]1O[C@@H]2SC(N(C)C)=N[C@@H]2[C@@H](O)[C@@H]1O)C(F)(F)F)c1ccccc1` [Example 47, (3aR,5S,6S,7R,7aR)-2-(dimethylamino)-5-((R)-2,2,2-trifluoro-1-((S)-1-phenylethoxy)ethyl)-5,6,7,7a-tetrahydro-3aH-pyrano[3,2-d]thiazole-6,7-diol], which Papp at 3 h, 1 μM is on record?
A: 34 ×10⁻⁶ cm/s

Q: With `COc1ccccc1CO[C@@H]([C@H]1O[C@@H]2SC(N(C)C)=N[C@@H]2[C@@H](O)[C@@H]1O)C(F)(F)F` [Example 49, (3aR,5S,6S,7R,7aR)-2-(dimethylamino)-5-((S)-2,2,2-trifluoro-1-(2-mcthoxybenzyloxy)ethyl)-5,6,7,7a-tetrahydro-3aH-pyrano[3,2-d]thiazole-6,7-diol] as the molecule, how does the Papp at 3 h, 1 μM read?
A: 29.8 ×10⁻⁶ cm/s

Q: For `COc1ccccc1CO[C@H]([C@H]1O[C@@H]2SC(N(C)C)=N[C@@H]2[C@@H](O)[C@@H]1O)C(F)(F)F` [Example 50, (3aR,5S,6S,7R,7aR)-2-(dimethylamino)-5-((R)-2,2,2-trifluoro-1-(2-methoxybenzyloxy)ethyl)-5,6,7,7a-tetrahydro-3aH-pyrano[3,2-d]thiazole-6,7-diol], which Papp at 3 h, 1 μM is on record?
A: 31.5 ×10⁻⁶ cm/s

Q: Which Papp at 3 h, 1 μM does the source give for `COc1cccc(CO[C@H]([C@H]2O[C@@H]3SC(N(C)C)=N[C@@H]3[C@@H](O)[C@@H]2O)C(F)(F)F)c1` [Example 51, (3aR,5S,6S,7R,7aR)-2-(dimethylamino)-5-((R)-2,2,2-trifluoro-1-(3-methoxybenzyloxy)ethyl)-5,6,7,7a-tetrahydro-3aH-pyrano[3,2-d]thiazole-6,7-diol] here?
A: 30.9 ×10⁻⁶ cm/s

Q: For `COc1ccc(CO[C@@H]([C@H]2O[C@@H]3SC(N(C)C)=N[C@@H]3[C@@H](O)[C@@H]2O)C(F)(F)F)cc1` [Example 53, (3aR,5S,6S,7R,7aR)-2-(dimethylamino)-5-((R)-2,2,2-trifluoro-1-(4-mcthoxybenzyloxy)ethyl)-5,6,7,7a-tetrahydro-3aH-pyrano[3,2-d]thiazole-6,7-diol], which Papp at 3 h, 1 μM is on record?
A: 33 ×10⁻⁶ cm/s

Q: Which Papp at 3 h, 1 μM does the source give for `COc1ccc(CO[C@H]([C@H]2O[C@@H]3SC(N(C)C)=N[C@@H]3[C@@H](O)[C@@H]2O)C(F)(F)F)cc1C` [Example 54, (3aR,5S,6S,7R,7aR)-2-(dimethylamino)-5-((R)-2,2,2-trifluoro-1-(4-methoxy-3-methylbenzyloxy)ethyl)-5,6,7,7a-tetrahydro-3aH-pyrano[3,2-d]thiazole-6,7-diol] here?
A: 31.3 ×10⁻⁶ cm/s

Q: Which Papp at 3 h, 1 μM does the source give for `CCc1cc(CO[C@H]([C@H]2O[C@@H]3SC(N(C)C)=N[C@@H]3[C@@H](O)[C@@H]2O)C(F)(F)F)ccc1OC` [Example 59, (3aR,5S,6S,7R,7aR)-2-(dimethylamino)-5-((R)-1-(3-ethyl-4-methoxybenzyloxy)-2,2,2-trifluoroethyl)-5,6,7,7a-tetrahydro-3aH-pyrano[3,2-d]thiazole-6,7-diol] here?
A: 29.6 ×10⁻⁶ cm/s

Q: With `COc1c(C)cc(CO[C@H]([C@H]2O[C@@H]3SC(N(C)C)=N[C@@H]3[C@@H](O)[C@@H]2O)C(F)(F)F)cc1C` [Example 60, (3aR,5S,6S,7R,7aR)-2-(dimethylamino)-5-((R)-2,2,2-trifluoro-1-(4-methoxy-3,5-dimethylbenzyloxy)ethyl)-5,6,7,7a-tetrahydro-3aH-pyrano[3,2-d]thiazole-6,7-diol] as the molecule, how does the Papp at 3 h, 1 μM read?
A: 29 ×10⁻⁶ cm/s
